Test results: PMC2908602, “Placental transfer of the polybrominated diphenyl ethers BDE-47, BDE-99 and BDE-209 in a human placenta perfusion system: an experimental study” (Environmental Health, 2010)
Where two headings read alike, the source gives them in different places.

Columns and labels:
[1] = parameters: species or system human; details: in vivo
Description: Total lipid content in placental tissue was determined according to Smedes (1999), while enzymatic lipid determination of triglyceride and cholesterol was performed on the plasma samples and total lipid was calculated as described by Covaci et al (2006).

[2] = in vivo; cited from earlier work
[3] = parameters: method as in PMID 11999784; details: cited from earlier work
[4] = system: human placenta
Description: The study was approved by the regional Ethics Committee (KF 01-145/03 + KF(11) 260063) and the Data Protection Agency. All mothers gave informed written consent. […] The placentas were injected with a Krebs Ringer buffer containing heparin (5000 IU/ml, 5 ml/l medium) to prevent any remaining blood in fetal vessels from coagulating. The perfusions were performed in a dual perfusion system as previously described. […] Next, the lobule containing the perfused cotyledon was cut from the placenta (9 cm diameter) and placed in the perfusion chamber. The maternal circulation was connected by blunt cannulation of the intervillous space surrounding the perfused cotyledon. The perfusion media (100 mL each in fetal and maternal reservoirs) were circulated by peristaltic pumps and consisted of Krebs Ringer Buffer containing heparin (5000 IU/mL, Copenhagen University Hospital Pharmacy, 5 mL/L medium), glucose (0.6 g/100 mL), Pen-Strep (1% Substrate department standard solution, Panum Institute Copenhagen) and physiological levels of Human Serum Albumin (20% solution, CSL Behring Gmbh, dialysed in Krebs Ringer Buffer, maternal reservoir: 30 g/L; fetal reservoir: 40 g/L) and gassed with 95% O2/5% CO2 and 95% N2/5% CO2 in the maternal and fetal reservoirs, respectively. […] After at least 30 minutes of pre-perfusion to stabilise temperature and oxygen content, BDE-47, BDE-99 and BDE-209 (Cambridge Isotopes Laboratories, 1 μg/mL in ethanol, 100 μL added; final concentration of 1 ng/mL) and the positive control substance antipyrine dissolved in H2O (Aldrich-Chemie, Germany; final concentration of 100 μg/mL) were added to the maternal reservoir. The applied concentrations of PBDEs were a compromise between achieving final levels relatively close to in vivo levels and having a detection frequency close to 100%. […] The perfusions were run for four hours, and 6 mL were sampled at t = 0 from the maternal circulation and from both reservoirs before addition of the compounds and at 2, 30, 60, 130, 190 and 240 minutes after addition of the compounds. The sampled volume was not replaced.
The pH (7.2-7.4), glucose and lactate concentrations (glucose > 6 mM), and O2 tension in the maternal perfusion medium (30-35 kPa), in the fetal perfusion medium (10-15 kPa), and in the fetal venous outflow (15-20 kPa) were measured every 30 minutes using an ABL5 blood gas analyser (Radiometer, Denmark). Adjustments were made using 1 M HCl or 1 M NaOH to adjust pH, glucose solution (2,61 g/L) and increasing or decreasing the rate of 95% N2/5% CO2 gassing in the fetal perfusate or 95% O2/5% CO2 gassing in the maternal perfusate to adjust pO2 after each measurement.
In addition to the perfusion samples, the three PBDE congeners were analysed in umbilical cord blood and in the placental tissue before and after the perfusion. Samples of umbilical cord blood were taken if possible and processed to collect plasma. Subsamples of the placental tissue were taken before perfusion as well as from the cotyledon and the surrounding tissue after perfusion. Prior to placenta perfusions, adsorption tests had been performed: The chambers and tubes were perfused without placental tissue to investigate loss of substance during the perfusion, for instance through adsorption to the perfusion system.

[5] = system: human placenta; details: cited from earlier work

Structure (SMILES): Brc1c(Br)c(Br)c(Oc2c(Br)c(Br)c(Br)c(Br)c2Br)c(Br)c1Br [BDE-209, decabromo diphenyl ether]
- Non-perfused placental tissue level [1]: < LOQ
- Umbilical cord plasma level [1]: < LOQ
- median level in placental tissue [2]: 1.14 ng/g lw
- observed blood levels, Denmark [2]: ~ 0.014 ng/ml
- observed blood levels, elsewhere [2]: 0.009 to 0.15 ng/mL
- logKow [3]: ≥ 10
- Cotyledon (perfused tissue) level ([4]; 4 h, 1 ng/mL): 107.8 (64.2-159.5) ng/g lw
- Surrounding placental tissue level ([4]; 4 h, 1 ng/mL): 22.2 (16.3-31.8) ng/g lw
- concentration in perfused cotyledon relative to background ([4]; 4 h, 1 ng/mL): 20 times
- concentration in surrounding tissue relative to background ([4]; 4 h, 1 ng/mL): 100 times
- mass balance: amount unaccounted for (system adsorption) ([4]; 4 h, 1 ng/mL): -8%
- mass balance: fraction of added amount in cotyledon ([4]; 4 h, 1 ng/mL): 24%
- mass balance: fraction of added amount in fetal circulation ([4]; 4 h, 1 ng/mL): 0%
- mass balance: fraction of added amount in maternal circulation ([4]; 4 h, 1 ng/mL): 27%
- mass balance: fraction of added amount in surrounding placental tissue ([4]; 4 h, 1 ng/mL): 19%
- mass balance: fraction of added amount removed by sampling ([4]; 4 h, 1 ng/mL): 38%

Structure (SMILES): Cc1cc(=O)n(-c2ccccc2)n1C [antipyrine, reference compound]
- indicative permeability coefficient (IPC) [5]: 0.94 h⁻¹
- FM-ratio at 190 min ([4]; 190 min, 100 µg/mL): 1.04

Structure (SMILES): c1ccc2c(c1)cc1ccc3cccc4ccc2c1c34 [benzo(a)pyrene]
- indicative permeability coefficient (IPC) ([5]; human placenta perfusion): 0.08 h⁻¹

Structure (SMILES): Cn1c(=O)c2c(ncn2C)n(C)c1=O [caffeine]
- indicative permeability coefficient (IPC) ([5]; not told): 1.03 h⁻¹

Structure (SMILES): O=C(O)CNCP(=O)(O)O [glyphosate]
- indicative permeability coefficient (IPC) ([5]; perfused in the same human placenta model): 0.11 h⁻¹
